Here are results for one sequence from US7148204B2, “Antisense modulation of bcl-x expression” (Isis Pharmaceuticala, Inc., priority 1998, dated 2006).

As a reminder, the IC50 is the concentration that inhibits the measured activity by half. A low value points to inhibition by little substance.

The subject of one data set is bcl-x protein. The experiment in a line: Western blot analysis of bcl-x protein levels in A549. Format: cell-based, human. As for the experimental part: Western blot analysis (immunoblot analysis) was carried out using standard methods. Generally, cells were harvested 16–20 hours after oligonucleotide treatment, washed once with PBS, suspended in Laemmli buffer (100 μl/well), boiled for 5 minutes and loaded on a 16% SDS-PAGE gel. Gels were run for 1.5 hours at 150 V, and transferred to membrane for western blotting. Appropriate primary antibody directed to bcl-x was used, with a radiolabelled or fluorescently labeled secondary antibody directed against the primary antibody species. Bands were visualized using a PHOSPHORIMAGER™ (Molecular Dynamics, Sunnyvale Calif.).
ISIS 15999 and 16009 were tested for the ability to reduce bcl-x protein levels in A549.
A general note: Immunoblotting shows a protein as a band on a membrane.

Another data set has as its system bcl-xl protein. The experiment in a line: Immunoblot of bcl-xl protein in CEM cells. Format: cell-based, human. As for the experimental part: (§1) Postnuclear detergent lysates were prepared as described by Reed et al. (Cancer Res., 1991, 51, 6529–6538), and the protein concentration was determined using a Bradford method protein assay kit (Bio-Rad, Hercules, Calif.). Protein (20 μg) was loaded in each lane, followed by electrophoresis on a 12% sodium dodecyl sulfate-polyacrylamide gel, followed by immunoblotting (Winston et al., 1993). The primary antibody was a 0.4 μg/ml dilution of the mouse monoclonal anti-human bcl-2 (clone 124, Dako, Carpinteria, Calif.), a 4.0 μg/ml dilution of the rabbit polyclonal anti-human bcl-xs/l (Dako), or a 0.3 μg/ml dilution of rabbit polyclonal anti-human Bax (N-20, Santa Cruz Biotechnology, Santa Cruz, Calif.). For development and STORM fluorescent imaging, the secondary antibody was peroxidase-conjugated sheep anti-mouse or donkey anti-rabbit (Amersham, Little Chalfort, UK). Chemiluminescence imaging and quantification were preformed using the STORM instrument and ImageQuant software (Molecular Dynamics, Sunnyvale, Calif.).

A further data set concerns bcl-2 protein. Put plainly: Immunoblot of bcl-2 protein in CEM cells. It is filed as cell-based, human. As to conditions: even at the highest concentration. The procedure: as §1
The next data set relates to human bcl-x mRNA. Put plainly: Northern blot analysis of bcl-x mRNA levels in A549 cells. It is filed as cell-based.
The test system of another data set is CEM-C7 cells. Put plainly: Viable cell counts of CEM cells (propidium iodide exclusion, flow cytometry). Format: cell-based, human. As to conditions: for viability by propidium iodide exclusion: 20 μM electroporation. The procedure:
CEM-C7 cells (Norman et al., 1978), a glucocortocoid sensitive clone of the human T-lymphoblastic cell line CEM, were cultured between 5×10^4 to 10^6 cells/ml in RPMI 1640 medium containing 10% heat-inactivated fetal bovine serum (FBS), streptomycin, penicillin G, 15 mM HEPES, 2 mM sodium pyruvate, at 37° C. in a humid, 5% CO2 incubator. Viable cell counts were performed by propidium iodide staining and flow cytometry.
CEM-C7 cells were electroporated with the indicated concentrations of oligonucleotides at 150 volts, 1,700 microFaraday (μF), and a resistance setting of 5 with a BTX electroporation apparatus (Genetronics, San Diego, Calif.) in 2-mm gap cuvettes containing 5×10^6 cells in 200 μl RPMI plus 20% FBS on ice. Cells were left on ice for 10 minutes, then plated in 5 ml complete media.
A general note: A flow cytometer gives signals particle by particle.

In the next data set the test system is CEM cells. The experiment in a line: Combination index (median-effect) of bcl-x antisense with chemotherapeutic drugs in CEM cells. Format: cell-based, human. The source says: To determine if synergy existed between the bcl-x and the chemotherapeutic drugs dexamethasone or doxorubicin, the median-effect principle of Chou (“The median-effect principle and the combination index for quantification of synergism and antagonism. In Synergism and Antagonism in Chemotherapy, T.-C. Chou and D. Rideout, eds., Academic Press, New York, pp. 61–102) was used to determine dose-effect parameters for the drugs individually and for the combinations of bcl-x antisense plus dexamethasone or bcl-x antisense plus doxorubicin. This method analyzes the shape of the drug dose-response curves for each drug, combination of drugs and quantitates synergism/antagonism at different concentrations. Median effect computer software (CalcuSyn for Windows, Biosoft, Ferguson, Mo.) was used to generate the combination index (CI), where a CI value of <1, =1, >1 indicates synergism (i.e., the effect of drug combination is greater than anticipated from the additive effect of the individual agents), additive effect, and antagonism, respectively.
Treatment of CEM cells with bcl-x antisense oligonucleotide makes the cells more sensitive to killing by doxorubicin or dexamethasone (FIGS. 9A–B). These, or similar drugs, are used frequently for acute lymphocytic leukemia treatment. The use of any of these therapeutic agents in combination with one or more antisense oligonucleotides to bcl-x is within the scope of the present invention. For these experiments, the CEM cells were electroporated with either the bcl-x antisense or control oligonucleotides, cultured for one day, then treated with the indicated concentrations of drug. […] A CI of <0.3 is classified as a strong degree of synergism, and 0.3 to 0.7 is classified as synergism. […] For the doses tested of doxorubicin, the CI ranged from 0.7 to 1.3.

Bounds are passed on as bounds.

As for “TCCCGGTTGCTCTGAGACAT (5-10-5 2'-MOE gapmer, phosphorothioate, further chemistry not given here) [ISIS 15999]”, in the data set with bcl-x protein, the bcl-x protein levels entry is reported as “reduce bcl-x protein levels in a dose-dependent manner”. The “level of bcl-xl protein” value in the data set on bcl-xl protein is reported as “dose dependent decrease”. For the same sequence, the bcl-2 protein levels entry with bcl-2 protein was “did not decrease”. Also, the “reduction of bcl-x mRNA levels” value in the data set on human bcl-x mRNA (25 nM (lowest dose tested)) is recorded as “approximately 70%”. Moreover, in the data set on human bcl-x mRNA (50 nM to 200 nM), the “inhibition of bcl-x mRNA” value is “greater than 90%”. In addition, in the data set on human bcl-x mRNA (200 nM), the “bcl-x mRNA at the highest dose” value is on record as “nearly complete ablation”. The sequence further returned an IC50 in the data set on human bcl-x mRNA (dose-response, Northern blot) of less than 25 nM. For the same sequence, the “viability by propidium iodide exclusion” value was 33% with CEM-C7 cells (CEM cells, 48 hours) and 46% in the data set on CEM-C7 cells (CEM cells, 72 hours). The “cell count less than control antisense treated cells” value in the data set on CEM-C7 cells (CEM cells, highest concentration, 20 hours after electroporation) was 40%. For the same sequence, in the data set on CEM-C7 cells (twenty hours after electroporation), the “viability of CEM cells” value is recorded as “dose dependent decrease”. For the same sequence, the “combination index (CI)” value is on record as less than 0.3 in the data set with CEM cells (with dexamethasone, three highest doses); 0.3 to 0.4 with CEM cells (with dexamethasone, two lower doses); 0.7 to 1.3 in the data set with CEM cells (with doxorubicin, doses tested).
